Reference: patent publication US20130310374A1, “Substituted Imidazoquinoline Derivatives” (PIRAMAL ENTERPRISES LIMITED`, priority 2010, published 2013)
One block for each compound: values may come before it.

Experiments:
KCL22 = experiment: Cytotoxicity propidium iodide assay, KCL22; format: cell-based; details: Homo sapiens, KCL-22; KCL22 (CML), 48 hours treatment; read-out: IC50 Values in μM, C6f
Experimental: The assay was designed as in the reference, Anticancer Drugs, 2002, 13, 1-8, the disclosure of which is incorporated herein by reference for the teaching of the assay.
Cells from cell lines (ATCC) as mentioned in the table given below were seeded at a density of 3000 cells/well in a white opaque 96-well plate. Following incubation at 37° C./5% CO2 for a period of 18-24 hours, the cells were treated with various concentrations (stock solution was prepared in DMSO and subsequent dilutions were made in media as per ATCC guidelines) of the compounds of the present invention for a period of 48 hours. At the end of treatment, the culture medium was discarded, the cells were washed with 1×PBS and 200 μL of […] propidium iodide was added to each well. […] For analysis, the plates were warmed to RT, allowed to thaw and were read in PoleStar fluorimeter with the fluorescence setting. The percentage of viable cells in the non-treated set of wells was considered to be 100 and the percentage viability following treatment was calculated accordingly. IC50 values were calculated from graphs plotted using these percentages. IC50 values for certain compounds of present invention are depicted in Table 1 and % Inhibition of certain compounds of present invention are depicted in Table 2.

[1] = tested on: Human umbilical vein endothelial cells (HUVECs); experiment: VEGF induced tube formation assay; format: cell-based; details: HUVECs on Matrigel, compound 75 nM, 18 hours; FIG. 2
Experimental: Protocol for Tube Formation Assay
Cell Culture: Human umbilical vein endothelial cells (HUVECs) (ATCC) used in passages 2-7. The cells were grown in endothelial medium (Promocell, Germany) supplemented with 20% fetal bovine serum (FBS), 100 units/mL penicillin, 100 μg/mL streptomycin, 3 ng/mL basic fibroblast growth factor, and 5 units/mL heparin at 37° C. under a humidified 95% (v/v) mixture of air and CO2.
Tube Formation Assay: 250 μl of growth factor-reduced Matrigel (BD Biosciences) was pipetted into a 24 well tissue culture plate and polymerized for 30 minutes at 37° C. HUVECs incubated in endothelial media containing 1% FBS for 6 hours were harvested after trypsin treatment and suspended in endothelial media containing 1% FBS. Compounds of present invention (75 nM) were added to the cells for 30 minutes at RT before seeding and plated onto the layer of Matrigel at a density of 2×10^4 cells/well, and followed by the addition of 2 mL of 40 ng/mL VEGF. After 18 hours, the cultures were photographed.
Results: When HUVECs were placed on growth factor-reduced Matrigel in the presence of VEGF, VEGF led to the formation of elongated and robust tube-like structures, which were organized by much larger number of cells compared with the control.

mTOR = molecular target: T1, mTOR (Homo sapiens, UniProt P42345); experiment: mTOR inhibition assay (ProQinase); format: biochemical; details: tested at ProQinase, Germany; read-out: IC50, mTOR enzyme activity
T1 construct: ProQinase, Germany (contract testing)
Experimental: The compounds of the present invention were tested at ProQinase, Germany.

arthritic DBA/1 J mice = experiment: Collagen-induced arthritis; format: in vivo, mouse; details: 1 mg/kg, p.o., twice daily
Experimental: Protocol for Collagen-Induced Arthritis
Induction of Collagen-Induced Arthritis and Treatment with Compound of Example 19
All animal experiments were carried out in accordance with the guidelines of Committee for the Purpose of Control and Supervision of Experiments on Animals (CPCSEA). All animal experiments were approved by Institutional Animal Ethics Committee (IAEC) of Piramal Life Sciences Limited, Mumbai, India. Collagen-induced arthritis was induced in DBA/1 J mice as described in J. Exp. Med., 1985, 162, 637-46. Inbred male DBA/1 J mice (8-10 weeks of age, Jackson Laboratories, Bar Harbor, Me.) were immunized intradermally at the base of the tail with 200 μg type II collagen emulsified in Freund's Complete Adjuvant (FCA) on day 0. On day 17, immunized mice were randomized into different groups based on their body weight. From day 17 onwards, (i) one group of mice started receiving administration of compound of Example 19 (1 mg/kg, p.o., twice daily), (ii) a second group of mice started receiving administration of vehicle (0.5% CMC, p.o., twice daily), and (iii) a third group of mice started receiving administration of Enbrel (3 mg/kg, s.c., once daily). On day 21, all mice were boosted with 200 μg type II collagen emulsified in FCA. The mice (8 per treatment group) were monitored daily (from day 17 onwards) for the development and severity of arthritis using articular index and paw thickness as parameters. Articular index scoring was performed employing the following criteria—Fore limbs (Scale 0-3): 0, no redness or swelling; 1, redness but no swelling; 2, redness and swelling of the paw; 3, redness and severe swelling of the paw. […] Swelling of each of the paws of mice was measured with constant-tension, spring-loaded calipers (Mitutoyo, Aurora, Ill.). […]
Treatment continued daily until day 36 of the study, and the body weight of the animal along with the severity of inflammation for all 4 paws was monitored daily. […]

SMILES: Cn1c(=O)n(-c2ccc(C(C)(C)C#N)nc2)c2c3cc(-c4cnc(N)c(C(F)(F)F)c4)ccc3ncc21 [Example 3, 2-(5-(8-(6-Amino-5-(trifluoromethyl)pyridin-3-yl)-3-methyl-2-oxo-2,3-dihydro-1H-imidazo[4,5-c]quinolin-1-yl)pyridin-2-yl)-2-methylpropanenitrile]
IC50 (KCL22): 2 µM

IC50 (mTOR): 0.0044 µM
SMILES: CS(=O)(=O)O.Cn1c(=O)n(-c2ccc(C(C)(C)C#N)nc2)c2c3cc(-c4cnc(N)c(C(F)(F)F)c4)ccc3ncc21 [Example 3a, 8-(6-Amino-5-(trifluoromethyl)pyridin-3-yl)-1-(6-(2-cyanopropan-2-yl)pyridin-3-yl)-3-methyl-2-oxo-2,3-dihydro-1H-imidazo[4,5-c]quinolin-5-ium methanesulfonate]
VEGF (40 ng/mL) induced tube formation [1]: effectively abrogated the width and the length of endothelial tubes induced by VEGF

SMILES: COc1ccc(-n2c(=O)n(C)c3cnc4ccc(-c5cnc(N)c(C(F)(F)F)c5)cc4c32)cn1 [Example 19, 8-(6-Amino-5-(trifluoromethyl)pyridin-3-yl)-1-(6-methoxypyridin-3-yl)-3-methyl-1H-imidazo[4,5-c]quinolin-2(3H)-one]
Bone erosion and joint space narrowing (arthritic DBA/1 J mice; day 17 to day 36): distinctly protects against bone erosion and joint space narrowing
Joint destruction, hyperproliferative pannus formation and infiltration of inflammatory cells (arthritic DBA/1 J mice; day 17 to day 36): prominently diminishes joint destruction, hyperproliferative pannus formation and infiltration of inflammatory cells
Disease-associated increase in articular index and paw thickness (arthritic DBA/1 J mice; day 17 to day 36, FIGS. 4a and 4b): inhibits disease-associated increase in articular index and paw thickness
